How the values were obtained:
Test in all cases: Test B pre-/postemergence
Assay type in all cases: in vivo
Parameters in all cases: key: 0 is no effect; 10 is complete control
[1] = system: soybean (Glycine max)
How it was run: (§1)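 Scored visually 0 (none) to 10 (complete control) against untreated plants after twelve to sixteen greenhouse days. Test chemicals, formulated in surfactant-containing non-phytotoxic solvent, applied to soil after planting and, separately, onto 1- to 4-leaf (2–18 cm) plants.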

[2] = system: giant foxtail (Setaria faberii)
How it was run: as §1

[3] = system: wild oat (Avena fatua)
How it was run: as §1

[4] = system: blackgrass (Alopecurus myosuroides)
How it was run: as §1

[5] = system: crabgrass (Digitaria sanguinalis)
How it was run: as §1

[6] = system: wheat (Triticum aestivum)
How it was run: as §1

[7] = system: corn (Zea mays)
How it was run: as §1

[8] = system: velvetleaf (Abutilon theophrasti)
How it was run: as §1

[9] = system: pigweed (Amaranthus retroflexus)
How it was run: as §1

[10] = system: cocklebur (Xanthium strumarium)
How it was run: as §1

[11] = system: broadleaf signalgrass (Brachiaria decumbens)
How it was run: as §1

[12] = system: sugar beet (Beta vulgaris)
How it was run: as §1

[13] = system: purple nutsedge (Cyperus rotundus)
How it was run: as §1

[14] = system: momingglory (Ipomoea hederacea)
How it was run: as §1

[15] = Preemergence, Rate 62 g/ha, scale of 0 to 10

Structure (SMILES): Cc1cnc(-n2ccc(C(F)(F)F)n2)nc1C(=O)c1cccc(C(F)(F)F)c1 [Compound 59]
- Plant response rating, Soybean [1, 15]: 1
- Soybean plant response rating ([1]; Rate 62 g/ha, Postemergence): 6
- Soybean plant response rating ([1]; Rate 125 g/ha, Postemergence): 7
- Plant response rating, Soybean ([1]; Rate 125 g/ha, Preemergence): 2
- Plant response rating, Soybean ([1]; Rate 250 g/ha, Postemergence): 8
- Plant response rating, Soybean ([1]; Rate 250 g/ha, Preemergence): 2
- Plant response rating, Soybean ([1]; Rate 500 g/ha, Postemergence): 9
- Plant response rating, Soybean ([1]; Rate 500 g/ha, Preemergence): 4
- Plant response rating, Giant foxtail [2, 15]: 8
- Giant foxtail plant response rating ([2]; Rate 62 g/ha, Postemergence): 6
- Giant foxtail plant response rating ([2]; Rate 125 g/ha, Postemergence): 6
- Plant response rating, Giant foxtail ([2]; Rate 125 g/ha, Preemergence): 10
- Plant response rating, Giant foxtail ([2]; Rate 250 g/ha, Postemergence): 8
- Plant response rating, Giant foxtail ([2]; Rate 250 g/ha, Preemergence): 10
- Plant response rating, Giant foxtail ([2]; Rate 500 g/ha, Postemergence): 9
- Plant response rating, Giant foxtail ([2]; Rate 500 g/ha, Preemergence): 10
- Plant response rating, Wild oats [3, 15]: 7
- Wild oats plant response rating ([3]; Rate 62 g/ha, Postemergence): 1
- Wild oats plant response rating ([3]; Rate 125 g/ha, Postemergence): 1
- Plant response rating, Wild oats ([3]; Rate 125 g/ha, Preemergence): 8
- Plant response rating, Wild oats ([3]; Rate 250 g/ha, Postemergence): 3
- Plant response rating, Wild oats ([3]; Rate 250 g/ha, Preemergence): 9
- Plant response rating, Wild oats ([3]; Rate 500 g/ha, Postemergence): 6
- Plant response rating, Wild oats ([3]; Rate 500 g/ha, Preemergence): 9
- Plant response rating, Blackgrass [4, 15]: 2
- Blackgrass plant response rating ([4]; Rate 62 g/ha, Postemergence): 2
- Blackgrass plant response rating ([4]; Rate 125 g/ha, Postemergence): 3
- Plant response rating, Blackgrass ([4]; Rate 125 g/ha, Preemergence): 3
- Plant response rating, Blackgrass ([4]; Rate 250 g/ha, Postemergence): 5
- Plant response rating, Blackgrass ([4]; Rate 250 g/ha, Preemergence): 7
- Plant response rating, Blackgrass ([4]; Rate 500 g/ha, Postemergence): 6
- Plant response rating, Blackgrass ([4]; Rate 500 g/ha, Preemergence): 9
- Plant response rating, Crabgrass [5, 15]: 8
- Crabgrass plant response rating ([5]; Rate 62 g/ha, Postemergence): 6
- Crabgrass plant response rating ([5]; Rate 125 g/ha, Postemergence): 6
- Plant response rating, Crabgrass ([5]; Rate 125 g/ha, Preemergence): 9
- Plant response rating, Crabgrass ([5]; Rate 250 g/ha, Postemergence): 8
- Plant response rating, Crabgrass ([5]; Rate 250 g/ha, Preemergence): 10
- Plant response rating, Crabgrass ([5]; Rate 500 g/ha, Postemergence): 9
- Plant response rating, Crabgrass ([5]; Rate 500 g/ha, Preemergence): 10
- Plant response rating, Wheat [6, 15]: 1
- Wheat plant response rating ([6]; Rate 62 g/ha, Postemergence): 1
- Wheat plant response rating ([6]; Rate 125 g/ha, Postemergence): 2
- Plant response rating, Wheat ([6]; Rate 125 g/ha, Preemergence): 2
- Plant response rating, Wheat ([6]; Rate 250 g/ha, Postemergence): 2
- Plant response rating, Wheat ([6]; Rate 250 g/ha, Preemergence): 3
- Plant response rating, Wheat ([6]; Rate 500 g/ha, Postemergence): 3
- Plant response rating, Wheat ([6]; Rate 500 g/ha, Preemergence): 5
- Plant response rating, Corn [7, 15]: 0
- Corn plant response rating ([7]; Rate 62 g/ha, Postemergence): 1
- Corn plant response rating ([7]; Rate 125 g/ha, Postemergence): 2
- Plant response rating, Corn ([7]; Rate 125 g/ha, Preemergence): 1
- Plant response rating, Corn ([7]; Rate 250 g/ha, Postemergence): 3
- Plant response rating, Corn ([7]; Rate 250 g/ha, Preemergence): 1
- Plant response rating, Corn ([7]; Rate 500 g/ha, Postemergence): 4
- Plant response rating, Corn ([7]; Rate 500 g/ha, Preemergence): 3
- Plant response rating, Velvetleaf [8, 15]: 7
- Velvetleaf plant response rating ([8]; Rate 62 g/ha, Postemergence): 6
- Velvetleaf plant response rating ([8]; Rate 125 g/ha, Postemergence): 7
- Plant response rating, Velvetleaf ([8]; Rate 125 g/ha, Preemergence): 7
- Plant response rating, Velvetleaf ([8]; Rate 250 g/ha, Postemergence): 7
- Plant response rating, Velvetleaf ([8]; Rate 250 g/ha, Preemergence): 9
- Plant response rating, Velvetleaf ([8]; Rate 500 g/ha, Postemergence): 8
- Plant response rating, Velvetleaf ([8]; Rate 500 g/ha, Preemergence): 10
- Plant response rating, Redroot pigweed [9, 15]: 8
- Redroot pigweed plant response rating ([9]; Rate 62 g/ha, Postemergence): 8
- Redroot pigweed plant response rating ([9]; Rate 125 g/ha, Postemergence): 8
- Plant response rating, Redroot pigweed ([9]; Rate 125 g/ha, Preemergence): 10
- Plant response rating, Redroot pigweed ([9]; Rate 250 g/ha, Postemergence): 8
- Plant response rating, Redroot pigweed ([9]; Rate 250 g/ha, Preemergence): 10
- Plant response rating, Redroot pigweed ([9]; Rate 500 g/ha, Postemergence): 9
- Plant response rating, Redroot pigweed ([9]; Rate 500 g/ha, Preemergence): 10
- Plant response rating, Cocklebur [10, 15]: 0
- Cocklebur plant response rating ([10]; Rate 62 g/ha, Postemergence): 4
- Cocklebur plant response rating ([10]; Rate 125 g/ha, Postemergence): 7
- Plant response rating, Cocklebur ([10]; Rate 125 g/ha, Preemergence): 2
- Plant response rating, Cocklebur ([10]; Rate 250 g/ha, Postemergence): 7
- Plant response rating, Cocklebur ([10]; Rate 500 g/ha, Postemergence): 8
- Plant response rating, Cocklebur ([10]; Rate 500 g/ha, Preemergence): 2
- B. signalgrass plant response rating ([11]; Rate 62 g/ha, Postemergence): 2
- B. signalgrass plant response rating ([11]; Rate 62 g/ha, Preemergence): 7
- B. signalgrass plant response rating ([11]; Rate 125 g/ha, Postemergence): 2
- Plant response rating, B. signalgrass ([11]; Rate 125 g/ha, Preemergence): 9
- Plant response rating, B. signalgrass ([11]; Rate 250 g/ha, Postemergence): 2
- Plant response rating, B. signalgrass ([11]; Rate 250 g/ha, Preemergence): 9
- Plant response rating, B. signalgrass ([11]; Rate 500 g/ha, Postemergence): 3
- Plant response rating, B. signalgrass ([11]; Rate 500 g/ha, Preemergence): 9
- Plant response rating, Sugarbeets [12, 15]: 10
- Sugarbeets plant response rating ([12]; Rate 62 g/ha, Postemergence): 9
- Sugarbeets plant response rating ([12]; Rate 125 g/ha, Postemergence): 9
- Plant response rating, Sugarbeets ([12]; Rate 125 g/ha, Preemergence): 10
- Plant response rating, Sugarbeets ([12]; Rate 250 g/ha, Postemergence): 9
- Plant response rating, Sugarbeets ([12]; Rate 250 g/ha, Preemergence): 10
- Plant response rating, Sugarbeets ([12]; Rate 500 g/ha, Postemergence): 9
- Plant response rating, Sugarbeets ([12]; Rate 500 g/ha, Preemergence): 10
- Plant response rating, Nutsedge [13, 15]: 0
- Nutsedge plant response rating ([13]; Rate 62 g/ha, Postemergence): 0
- Nutsedge plant response rating ([13]; Rate 125 g/ha, Postemergence): 0
- Plant response rating, Nutsedge ([13]; Rate 125 g/ha, Preemergence): 0
- Plant response rating, Nutsedge ([13]; Rate 250 g/ha, Postemergence): 0
- Plant response rating, Nutsedge ([13]; Rate 250 g/ha, Preemergence): 0
- Plant response rating, Nutsedge ([13]; Rate 500 g/ha, Postemergence): 0
- Plant response rating, Nutsedge ([13]; Rate 500 g/ha, Preemergence): 0
- Plant response rating, Morningglory [14, 15]: 6
- Morningglory plant response rating ([14]; Rate 62 g/ha, Postemergence): 7
- Plant response rating, Morningglory ([14]; Rate 125 g/ha, Preemergence): 6
- Plant response rating, Morningglory ([14]; Rate 250 g/ha, Postemergence): 10
- Plant response rating, Morningglory ([14]; Rate 250 g/ha, Preemergence): 10
- Plant response rating, Morningglory ([14]; Rate 500 g/ha, Postemergence): 10
- Plant response rating, Morningglory ([14]; Rate 500 g/ha, Preemergence): 10

— patent US6525001B1, “Substituted pyrimidine and pyridine herbicides” (Mid-American Commercialization Corporation, priority 1997, dated 2003)
